Assay results: PubChem BioAssay AID2060325 (Molecular Pharmacology Branch, DTP, NCI, 2025)
Where “and” joins values, the source holds several entries; their conditions need not be identical. Equal entries are not always repeated.

Tested on: SK-OV-3 multi-cell spheroids, viability
Assay: Anticancer human tumor SK-OV-3 cell line growth inhibition [IpAb];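 for viability, T/C: viability read after seven days of drug exposure; percent of DMSO vehicle control luminescence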
Settings: for viability, T/C: stronger effect = lower value
Procedure, shortened: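 Multi-cell spheroids of 60% tumour cells, 25% HUVEC and 15% MSC in ultra-low-attachment U-bottom wells, treated with agents combined with ipatasertib or abemaciclib. Half-log ranges top out near clinical Cmax, or 10 microM when Cmax is unknown.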

[1] = curve of first compound, second compound 0.1 µM
[2] = curve of first compound, second compound 0.316 µM
[3] = curve of first compound, second compound 1 µM
[4] = curve of first compound, second compound 3.16 µM
[5] = curve of first compound, second compound 10 µM
[6] = second compound 0.1 µM, first compound 0.0316 µM
[7] = second compound 0.1 µM, first compound 0.1 µM
[8] = second compound 0.1 µM, first compound 0.316 µM
[9] = second compound 0.1 µM, first compound 1 µM
[10] = second compound 0.1 µM, first compound 3.16 µM
[11] = second compound 0.1 µM, first compound 10 µM
[12] = second compound 0.316 µM, first compound 0.0316 µM
[13] = second compound 0.316 µM, first compound 0.1 µM
[14] = second compound 0.316 µM, first compound 0.316 µM
[15] = second compound 0.316 µM, first compound 1 µM
[16] = second compound 0.316 µM, first compound 3.16 µM
[17] = second compound 0.316 µM, first compound 10 µM
[18] = second compound 1 µM, first compound 0.0316 µM
[19] = second compound 1 µM, first compound 0.1 µM
[20] = second compound 1 µM, first compound 0.316 µM
[21] = second compound 1 µM, first compound 1 µM
[22] = second compound 1 µM, first compound 3.16 µM
[23] = second compound 1 µM, first compound 10 µM
[24] = second compound 3.16 µM, first compound 0.0316 µM
[25] = second compound 3.16 µM, first compound 0.1 µM
[26] = second compound 3.16 µM, first compound 0.316 µM
[27] = second compound 3.16 µM, first compound 1 µM
[28] = second compound 3.16 µM, first compound 3.16 µM
[29] = second compound 3.16 µM, first compound 10 µM
[30] = second compound 10 µM, first compound 0.0316 µM
[31] = second compound 10 µM, first compound 0.1 µM
[32] = second compound 10 µM, first compound 0.316 µM
[33] = second compound 10 µM, first compound 1 µM
[34] = second compound 10 µM, first compound 3.16 µM
[35] = second compound 10 µM, first compound 10 µM

Structure (SMILES): CC(C)(C)c1cnc(CSc2cnc(NC(=O)C3CCNCC3)s2)o1 + CC(C)NCC(C(=O)N1CCN(c2ncnc3c2C(C)CC3O)CC1)c1ccc(Cl)cc1
- IC50 [1]: 168 nM
- IC50 [2]: 118 nM
- IC50 [3]: < 9.49 nM
- IC50 [4]: < 9.49 nM
- IC50 [5]: < 9.49 nM
- viability, T/C (second compound 0.1 µM, first compound 0.00949 µM): 74.8%
- viability, T/C (second compound 0.1 µM, first compound 0.03 µM): 92%
- viability, T/C (second compound 0.1 µM, first compound 0.0949 µM): 89.1%
- viability, T/C (second compound 0.1 µM, first compound 0.3 µM): 14.5%
- viability, T/C (second compound 0.1 µM, first compound 0.949 µM): 0.65%
- viability, T/C (second compound 0.1 µM, first compound 3 µM): 0.75%
- viability, T/C (second compound 0.316 µM, first compound 0.00949 µM): 49.5%
- viability, T/C (second compound 0.316 µM, first compound 0.03 µM): 50.8%
- viability, T/C (second compound 0.316 µM, first compound 0.0949 µM): 73.7%
- viability, T/C (second compound 0.316 µM, first compound 0.3 µM): 17.3%
- viability, T/C (second compound 0.316 µM, first compound 0.949 µM): 0.41%
- viability, T/C (second compound 0.316 µM, first compound 3 µM): 0.65%
- viability, T/C (second compound 1 µM, first compound 0.00949 µM): 22.3%
- viability, T/C (second compound 1 µM, first compound 0.03 µM): 30.2%
- viability, T/C (second compound 1 µM, first compound 0.0949 µM): 41.9%
- viability, T/C (second compound 1 µM, first compound 0.3 µM): 11.7%
- viability, T/C (second compound 1 µM, first compound 0.949 µM): 0.3%
- viability, T/C (second compound 1 µM, first compound 3 µM): 0.62%
- viability, T/C (second compound 3.16 µM, first compound 0.00949 µM): 18%
- viability, T/C (second compound 3.16 µM, first compound 0.03 µM): 22.6%
- viability, T/C (second compound 3.16 µM, first compound 0.0949 µM): 28.4%
- viability, T/C (second compound 3.16 µM, first compound 0.3 µM): 9.86%
- viability, T/C (second compound 3.16 µM, first compound 0.949 µM): 0.58%
- viability, T/C (second compound 3.16 µM, first compound 3 µM): 0.66%
- viability, T/C (second compound 10 µM, first compound 0.00949 µM): 11.3%
- viability, T/C (second compound 10 µM, first compound 0.03 µM): 11.4%
- viability, T/C (second compound 10 µM, first compound 0.0949 µM): 14.2%
- viability, T/C (second compound 10 µM, first compound 0.3 µM): 2.96%
- viability, T/C (second compound 10 µM, first compound 0.949 µM): 0.36%
- viability, T/C (second compound 10 µM, first compound 3 µM): 0.65%

Structure (SMILES): CC1(C)CCC(CN2CCN(c3ccc(C(=O)NS(=O)(=O)c4ccc(NCC5CCOCC5)c([N+](=O)[O-])c4)c(Oc4cnc5[nH]ccc5c4)c3)CC2)=C(c2ccc(Cl)cc2)C1 + CC(C)NCC(C(=O)N1CCN(c2ncnc3c2C(C)CC3O)CC1)c1ccc(Cl)cc1
- IC50 [1]: 3200 nM
- IC50 [2]: < 31.6 nM
- IC50 [3]: < 31.6 nM
- IC50 [4]: < 31.6 nM
- IC50 [5]: < 31.6 nM
- viability, T/C [6]: 64.3%
- viability, T/C [7]: 70.6%
- viability, T/C [8]: 68%
- viability, T/C [9]: 58.6%
- viability, T/C [10]: 51.2%
- viability, T/C [11]: 26.1%
- viability, T/C [12]: 33.6%
- viability, T/C [13]: 38.2%
- viability, T/C [14]: 31.7%
- viability, T/C [15]: 31.6%
- viability, T/C [16]: 28%
- viability, T/C [17]: 18.6%
- viability, T/C [18]: 21.1%
- viability, T/C [19]: 27.3%
- viability, T/C [20]: 21.6%
- viability, T/C [21]: 18.9%
- viability, T/C [22]: 17%
- viability, T/C [23]: 13.7%
- viability, T/C [24]: 15.5%
- viability, T/C [25]: 15.3%
- viability, T/C [26]: 14.2%
- viability, T/C [27]: 13.9%
- viability, T/C [28]: 11.1%
- viability, T/C [29]: 7.06%
- viability, T/C [30]: 7.25%
- viability, T/C [31]: 9.06%
- viability, T/C [32]: 8.25%
- viability, T/C [33]: 6.89%
- viability, T/C [34]: 5.18%
- viability, T/C [35]: 4.58%

Structure (SMILES): COc1c(OCCCN2CCOCC2)ccc2c3n(c(=NC(=O)c4cnc(N)nc4)nc12)CCN3 + CC(C)NCC(C(=O)N1CCN(c2ncnc3c2C(C)CC3O)CC1)c1ccc(Cl)cc1
- IC50 [1]: 3.82 nM
- IC50 [2]: < 3.16 nM
- IC50 [3]: < 3.16 nM
- IC50 [4]: < 3.16 nM
- IC50 [5]: < 3.16 nM
- viability, T/C (second compound 0.1 µM, first compound 0.00316 µM): 53.7%
- viability, T/C (second compound 0.1 µM, first compound 0.01 µM): 31.3%
- viability, T/C [6]: 12.1%
- viability, T/C [7]: 6.59%
- viability, T/C [8]: 5.28%
- viability, T/C [9]: 3.75%
- viability, T/C (second compound 0.316 µM, first compound 0.00316 µM): 29.5%
- viability, T/C (second compound 0.316 µM, first compound 0.01 µM): 18.4%
- viability, T/C [12]: 9.72%
- viability, T/C [13]: 7.09%
- viability, T/C [14]: 5.47%
- viability, T/C [15]: 3.33%
- viability, T/C (second compound 1 µM, first compound 0.00316 µM): 17.3%
- viability, T/C (second compound 1 µM, first compound 0.01 µM): 11%
- viability, T/C [18]: 8.59%
- viability, T/C [19]: 6.92%
- viability, T/C [20]: 4.3%
- viability, T/C [21]: 2.76%
- viability, T/C (second compound 3.16 µM, first compound 0.00316 µM): 12.3%
- viability, T/C (second compound 3.16 µM, first compound 0.01 µM): 9.35%
- viability, T/C [24]: 8.55%
- viability, T/C [25]: 6.85%
- viability, T/C [26]: 4.48%
- viability, T/C [27]: 2.41%
- viability, T/C (second compound 10 µM, first compound 0.00316 µM): 6.56%
- viability, T/C (second compound 10 µM, first compound 0.01 µM): 5.87%
- viability, T/C [30]: 5.36%
- viability, T/C [31]: 4.04%
- viability, T/C [32]: 2.89%
- viability, T/C [33]: 1.6%

Structure (SMILES): CC1(C)CCC(CN2CCN(c3ccc(C(=O)NS(=O)(=O)c4ccc(NCC5CCOCC5)c([N+](=O)[O-])c4)c(Oc4cnc5[nH]ccc5c4)c3)CC2)=C(c2ccc(Cl)cc2)C1
- viability, T/C (compound 0.0316 µM): 108% and 100%
- viability, T/C (compound 0.1 µM): 105% and 103%
- viability, T/C (compound 0.316 µM): 104% and 112%
- viability, T/C (compound 1 µM): 96.4% and 94.5%
- viability, T/C (compound 3.16 µM): 61.8% and 62.1%
- viability, T/C (compound 10 µM): 24.5% and 5.23%
- IC50 (curve of compound): 4560 nM and 4020 nM

Structure (SMILES): Cc1nc(NC(=O)N2CCCC2C(N)=O)sc1-c1ccnc(C(C)(C)C(F)(F)F)c1 (configuration not stated) + CC(C)NCC(C(=O)N1CCN(c2ncnc3c2C(C)CC3O)CC1)c1ccc(Cl)cc1
- IC50 [1]: 120 nM
- IC50 [2]: < 31.6 nM
- IC50 [3]: < 31.6 nM
- IC50 [4]: < 31.6 nM
- IC50 [5]: < 31.6 nM
- viability, T/C [6]: 67.1%
- viability, T/C [7]: 52.7%
- viability, T/C [8]: 35%
- viability, T/C [9]: 19.4%
- viability, T/C [10]: 9%
- viability, T/C [11]: 5%
- viability, T/C [12]: 33.5%
- viability, T/C [13]: 30.2%
- viability, T/C [14]: 22.5%
- viability, T/C [15]: 11.6%
- viability, T/C [16]: 8.53%
- viability, T/C [17]: 4.14%
- viability, T/C [18]: 16.4%
- viability, T/C [19]: 15.6%
- viability, T/C [20]: 13.8%
- viability, T/C [21]: 9.61%
- viability, T/C [22]: 7.02%
- viability, T/C [23]: 4.07%
- viability, T/C [24]: 14.5%
- viability, T/C [25]: 11.2%
- viability, T/C [26]: 7.81%
- viability, T/C [27]: 6.61%
- viability, T/C [28]: 6.22%
- viability, T/C [29]: 4.46%
- viability, T/C [30]: 7.89%
- viability, T/C [31]: 8.14%
- viability, T/C [32]: 5.69%
- viability, T/C [33]: 5.04%
- viability, T/C [34]: 3.63%
- viability, T/C [35]: 2.25%
